These results are taken from ChEMBL document CHEMBL4630901 (2021).

The target of test [1] is Sodium-dependent noradrenaline transporter (Homo sapiens) (UniProt P23975). The note with it: Compound concentration 10.0 uM.
Test [2] addresses Alpha-2A adrenergic receptor (Homo sapiens, UniProt P08913). The experiment in a line: GPCRScan assay: inhibition of Alpha2A. The arrangement: radioligand conc. used [nm] 1.0 – 3.0, parental cells stable MDCK.
Test [3] concerns the target Prostaglandin F2-alpha receptor (Homo sapiens, UniProt P43088). Put plainly: Panlabs binding assay.
For test [4], the target named is Muscarinic acetylcholine receptor M3 (Homo sapiens) (UniProt P20309). The note with it: Compound concentration 10.0 uM.
In test [5] the target is Insulin receptor (Homo sapiens) (UniProt P06213). The following applies: Rattus norvegicus; Compound concentration 10.0 uM.
Chain of Insulin receptor (Homo sapiens) (P06213 28-758 limits assumed): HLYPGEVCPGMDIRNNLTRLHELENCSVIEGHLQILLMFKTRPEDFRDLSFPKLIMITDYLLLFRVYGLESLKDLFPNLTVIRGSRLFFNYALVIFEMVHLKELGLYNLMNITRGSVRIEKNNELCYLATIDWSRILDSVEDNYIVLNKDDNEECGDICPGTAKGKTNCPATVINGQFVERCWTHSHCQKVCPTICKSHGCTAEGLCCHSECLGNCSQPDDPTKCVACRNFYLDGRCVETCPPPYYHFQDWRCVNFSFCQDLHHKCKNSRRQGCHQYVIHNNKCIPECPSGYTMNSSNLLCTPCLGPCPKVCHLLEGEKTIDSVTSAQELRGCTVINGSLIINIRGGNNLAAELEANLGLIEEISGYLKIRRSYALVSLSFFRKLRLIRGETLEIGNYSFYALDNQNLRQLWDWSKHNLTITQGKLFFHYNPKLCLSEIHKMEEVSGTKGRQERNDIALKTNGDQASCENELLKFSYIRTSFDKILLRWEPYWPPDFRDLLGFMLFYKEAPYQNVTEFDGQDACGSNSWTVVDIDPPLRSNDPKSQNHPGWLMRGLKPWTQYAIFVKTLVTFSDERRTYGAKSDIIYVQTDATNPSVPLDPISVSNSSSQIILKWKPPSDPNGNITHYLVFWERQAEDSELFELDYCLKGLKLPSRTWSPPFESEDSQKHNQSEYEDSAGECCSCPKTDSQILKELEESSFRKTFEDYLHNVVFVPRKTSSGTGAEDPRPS
Chain of Insulin receptor (Homo sapiens) (P06213 763-1382 limits assumed): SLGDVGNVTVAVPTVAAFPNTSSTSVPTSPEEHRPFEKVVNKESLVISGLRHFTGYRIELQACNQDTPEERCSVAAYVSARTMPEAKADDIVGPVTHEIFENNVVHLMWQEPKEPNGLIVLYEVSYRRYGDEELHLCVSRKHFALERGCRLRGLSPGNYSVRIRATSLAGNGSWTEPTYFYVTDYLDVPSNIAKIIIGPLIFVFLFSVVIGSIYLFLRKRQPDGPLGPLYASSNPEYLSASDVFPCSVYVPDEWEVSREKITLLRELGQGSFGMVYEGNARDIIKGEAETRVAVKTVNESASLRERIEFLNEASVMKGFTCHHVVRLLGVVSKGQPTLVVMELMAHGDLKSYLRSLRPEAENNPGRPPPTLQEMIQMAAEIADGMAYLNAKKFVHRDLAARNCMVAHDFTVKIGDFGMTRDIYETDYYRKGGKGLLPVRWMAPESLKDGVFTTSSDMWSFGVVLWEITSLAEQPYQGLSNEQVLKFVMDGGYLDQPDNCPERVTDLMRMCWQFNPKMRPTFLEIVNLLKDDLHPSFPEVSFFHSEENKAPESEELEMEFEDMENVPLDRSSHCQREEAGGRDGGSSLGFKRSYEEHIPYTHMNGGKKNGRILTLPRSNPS
Test [6] concerns the target Sodium-dependent noradrenaline transporter (Homo sapiens) (UniProt P23975). The note with it: Compound concentration 10.0 uM. This is another data set of the same source.
The target of test [7] is Glutamate NMDA receptor (Rattus norvegicus) (UniProt P35439+Q00959+Q00960+Q00961+Q62645+Q8VHN2+Q9R1M7). The following applies: Compound concentration 10.0 uM.
Test [8] has as its target T1, Alpha-2A adrenergic receptor (Homo sapiens) (UniProt P08913).
T1 sequence (whole entry): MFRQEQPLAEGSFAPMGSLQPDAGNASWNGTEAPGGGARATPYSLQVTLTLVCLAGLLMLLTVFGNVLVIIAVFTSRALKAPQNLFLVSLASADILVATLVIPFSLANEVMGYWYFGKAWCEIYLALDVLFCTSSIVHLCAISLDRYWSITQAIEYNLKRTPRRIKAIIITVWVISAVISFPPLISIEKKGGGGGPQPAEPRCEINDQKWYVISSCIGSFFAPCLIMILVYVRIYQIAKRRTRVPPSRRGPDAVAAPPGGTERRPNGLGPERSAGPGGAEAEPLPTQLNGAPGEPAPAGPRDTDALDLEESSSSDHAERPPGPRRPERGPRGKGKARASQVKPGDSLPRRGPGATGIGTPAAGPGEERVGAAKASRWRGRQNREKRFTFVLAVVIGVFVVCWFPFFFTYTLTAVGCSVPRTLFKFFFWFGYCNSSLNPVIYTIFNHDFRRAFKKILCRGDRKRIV
The note with it: Compound concentration 10.0 uM.

Test [9] concerns the target Cannabinoid receptor 2 (Homo sapiens) (UniProt P34972). The note with it: Compound concentration 10.0 uM.
For test [10], the target named is T2, Muscarinic acetylcholine receptor M2 (Homo sapiens) (UniProt P08172).
T2 sequence (whole entry): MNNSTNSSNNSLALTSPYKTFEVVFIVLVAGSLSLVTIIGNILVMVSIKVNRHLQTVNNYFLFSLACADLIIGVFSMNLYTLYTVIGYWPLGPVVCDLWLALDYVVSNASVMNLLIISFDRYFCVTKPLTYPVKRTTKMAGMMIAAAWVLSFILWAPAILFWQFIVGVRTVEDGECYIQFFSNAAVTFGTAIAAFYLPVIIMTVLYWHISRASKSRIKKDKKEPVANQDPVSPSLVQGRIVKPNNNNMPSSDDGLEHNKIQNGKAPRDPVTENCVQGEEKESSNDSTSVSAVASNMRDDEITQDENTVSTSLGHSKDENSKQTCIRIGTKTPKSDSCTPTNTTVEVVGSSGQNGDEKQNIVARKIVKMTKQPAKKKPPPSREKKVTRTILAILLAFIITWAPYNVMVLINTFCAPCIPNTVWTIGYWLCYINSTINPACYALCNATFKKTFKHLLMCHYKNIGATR
The following applies: Compound concentration 10.0 uM.

The target in test [11] is Type-1 angiotensin II receptor (Homo sapiens) (UniProt P30556). The note with it: Compound concentration 10.0 uM.
Chain of Type-1 angiotensin II receptor (Homo sapiens) (P30556 whole entry): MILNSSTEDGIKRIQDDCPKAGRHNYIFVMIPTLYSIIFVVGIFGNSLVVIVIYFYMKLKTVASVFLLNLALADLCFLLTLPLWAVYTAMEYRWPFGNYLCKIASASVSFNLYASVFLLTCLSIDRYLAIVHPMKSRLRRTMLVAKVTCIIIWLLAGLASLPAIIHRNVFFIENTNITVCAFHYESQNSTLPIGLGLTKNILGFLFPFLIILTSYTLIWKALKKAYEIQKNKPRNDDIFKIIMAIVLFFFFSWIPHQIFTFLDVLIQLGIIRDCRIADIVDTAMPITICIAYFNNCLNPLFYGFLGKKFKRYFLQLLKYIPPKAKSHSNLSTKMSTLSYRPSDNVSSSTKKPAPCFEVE
For test [12], the target named is D(2) dopamine receptor (Homo sapiens) (UniProt P14416). The following applies: Compound concentration 10.0 uM.
Chain of D(2) dopamine receptor (Homo sapiens) (P14416 whole entry): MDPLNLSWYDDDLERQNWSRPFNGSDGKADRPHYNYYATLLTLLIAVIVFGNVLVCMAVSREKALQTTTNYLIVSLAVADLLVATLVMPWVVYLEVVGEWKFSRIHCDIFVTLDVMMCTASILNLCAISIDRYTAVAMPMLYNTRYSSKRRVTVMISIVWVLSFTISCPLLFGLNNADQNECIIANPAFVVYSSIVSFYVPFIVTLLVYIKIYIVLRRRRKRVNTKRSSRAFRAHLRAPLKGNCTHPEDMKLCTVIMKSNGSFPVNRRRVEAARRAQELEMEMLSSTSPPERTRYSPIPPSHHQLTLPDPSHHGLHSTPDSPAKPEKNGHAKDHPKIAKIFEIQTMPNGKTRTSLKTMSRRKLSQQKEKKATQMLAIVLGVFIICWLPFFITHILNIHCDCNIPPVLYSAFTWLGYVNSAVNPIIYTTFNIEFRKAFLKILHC
The target of test [13] is Delta-type opioid receptor (Homo sapiens) (UniProt P41143). The note with it: Compound concentration 10.0 uM.
In test [14] the target is Sodium-dependent dopamine transporter (Homo sapiens) (UniProt Q01959). The note with it: Compound concentration 10.0 uM.
Test [15] deals with Motilin receptor (Homo sapiens) (UniProt O43193). The note with it: Compound concentration 10.0 uM.
In test [16] the target is Glutamate receptor 2 (Homo sapiens) (UniProt P42262). The following applies: Rattus norvegicus; Compound concentration 10.0 uM.
Test [17] has as its target Cannabinoid receptor 1 (Homo sapiens) (UniProt P21554). The note with it: Compound concentration 10.0 uM.
Test [18] deals with Beta-2 adrenergic receptor (Homo sapiens) (UniProt P07550). The note with it: Compound concentration 10.0 uM.
Chain of Beta-2 adrenergic receptor (Homo sapiens) (P07550 whole entry, looked up): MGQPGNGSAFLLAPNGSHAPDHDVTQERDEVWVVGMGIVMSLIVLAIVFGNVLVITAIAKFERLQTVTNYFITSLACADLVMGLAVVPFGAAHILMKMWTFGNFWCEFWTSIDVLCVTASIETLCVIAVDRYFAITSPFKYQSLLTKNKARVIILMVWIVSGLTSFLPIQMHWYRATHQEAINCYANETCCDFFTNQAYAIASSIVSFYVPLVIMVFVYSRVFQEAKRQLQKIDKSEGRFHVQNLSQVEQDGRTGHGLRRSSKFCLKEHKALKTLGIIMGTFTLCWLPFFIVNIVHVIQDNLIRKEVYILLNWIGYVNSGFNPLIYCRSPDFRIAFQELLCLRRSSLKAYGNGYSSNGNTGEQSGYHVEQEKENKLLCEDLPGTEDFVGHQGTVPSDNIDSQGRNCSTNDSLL
Test [19] has as its target Prostacyclin receptor (Homo sapiens) (UniProt P43119). The experiment in a line: IP (PGI2) Eurofins-Panlabs radioligand binding assay. The arrangement: ligand concentration 6 nM.
For test [20], the target named is D(2) dopamine receptor (Homo sapiens) (UniProt P14416). The following applies: Compound concentration 10.0 uM. The source holds these as a separate data set.
For test [21], the target named is Histamine H3 receptor (Homo sapiens) (UniProt Q9Y5N1). The note with it: Compound concentration 10.0 uM.
Chain of Histamine H3 receptor (Homo sapiens) (Q9Y5N1 whole entry): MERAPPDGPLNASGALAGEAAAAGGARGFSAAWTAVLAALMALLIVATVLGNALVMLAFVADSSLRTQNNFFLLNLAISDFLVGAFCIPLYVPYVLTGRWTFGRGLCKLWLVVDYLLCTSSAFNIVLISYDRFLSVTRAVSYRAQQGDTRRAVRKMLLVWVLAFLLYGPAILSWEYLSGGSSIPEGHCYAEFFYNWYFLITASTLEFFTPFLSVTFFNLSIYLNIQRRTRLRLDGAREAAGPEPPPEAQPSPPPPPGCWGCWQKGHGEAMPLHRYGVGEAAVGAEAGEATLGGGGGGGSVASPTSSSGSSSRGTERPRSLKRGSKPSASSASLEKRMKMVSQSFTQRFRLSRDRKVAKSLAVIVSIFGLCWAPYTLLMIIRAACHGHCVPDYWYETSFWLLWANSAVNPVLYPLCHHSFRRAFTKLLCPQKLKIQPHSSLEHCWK
Test [22] concerns the target T3, 5-hydroxytryptamine receptor 2C (Homo sapiens) (UniProt P28335).
T3 sequence (whole entry): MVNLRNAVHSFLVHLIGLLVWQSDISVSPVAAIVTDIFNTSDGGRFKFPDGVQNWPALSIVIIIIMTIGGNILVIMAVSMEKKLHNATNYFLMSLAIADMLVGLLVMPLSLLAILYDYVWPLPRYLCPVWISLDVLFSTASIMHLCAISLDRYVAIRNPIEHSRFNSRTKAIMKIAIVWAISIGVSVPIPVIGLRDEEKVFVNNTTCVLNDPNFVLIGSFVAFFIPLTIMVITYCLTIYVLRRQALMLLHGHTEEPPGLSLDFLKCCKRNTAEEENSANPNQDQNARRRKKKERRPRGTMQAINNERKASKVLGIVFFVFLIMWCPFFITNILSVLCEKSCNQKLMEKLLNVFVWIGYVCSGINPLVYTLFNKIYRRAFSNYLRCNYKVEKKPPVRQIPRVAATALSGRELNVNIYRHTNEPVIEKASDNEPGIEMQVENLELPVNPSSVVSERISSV
The following applies: Compound concentration 10.0 uM.

The target in test [23] is Adenosine receptor A2a (Homo sapiens) (UniProt P29274). The note with it: Compound concentration 10.0 uM.
Chain of Adenosine receptor A2a (Homo sapiens) (P29274 whole entry): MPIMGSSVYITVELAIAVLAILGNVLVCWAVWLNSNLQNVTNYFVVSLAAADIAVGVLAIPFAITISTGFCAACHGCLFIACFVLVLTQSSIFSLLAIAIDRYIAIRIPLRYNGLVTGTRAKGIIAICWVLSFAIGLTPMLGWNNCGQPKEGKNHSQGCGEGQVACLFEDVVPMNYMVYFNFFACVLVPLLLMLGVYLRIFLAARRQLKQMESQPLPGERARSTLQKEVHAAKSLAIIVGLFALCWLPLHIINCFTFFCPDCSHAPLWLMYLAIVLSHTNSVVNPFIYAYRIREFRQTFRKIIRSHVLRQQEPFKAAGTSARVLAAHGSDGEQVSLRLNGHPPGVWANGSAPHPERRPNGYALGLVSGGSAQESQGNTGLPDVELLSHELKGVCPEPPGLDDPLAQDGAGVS

Chain of Prostacyclin receptor (Homo sapiens) (P43119 whole entry): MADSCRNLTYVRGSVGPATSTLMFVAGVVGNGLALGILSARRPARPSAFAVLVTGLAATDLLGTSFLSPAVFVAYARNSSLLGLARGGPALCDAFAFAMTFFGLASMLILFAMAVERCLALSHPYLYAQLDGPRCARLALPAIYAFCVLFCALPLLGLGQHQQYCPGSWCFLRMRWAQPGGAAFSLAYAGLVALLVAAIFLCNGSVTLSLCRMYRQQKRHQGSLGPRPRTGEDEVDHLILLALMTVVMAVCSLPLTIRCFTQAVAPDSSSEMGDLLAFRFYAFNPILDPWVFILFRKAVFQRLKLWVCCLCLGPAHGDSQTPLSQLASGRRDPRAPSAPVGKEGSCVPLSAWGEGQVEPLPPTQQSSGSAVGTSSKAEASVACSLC
Chain of Sodium-dependent noradrenaline transporter (Homo sapiens) (P23975 whole entry): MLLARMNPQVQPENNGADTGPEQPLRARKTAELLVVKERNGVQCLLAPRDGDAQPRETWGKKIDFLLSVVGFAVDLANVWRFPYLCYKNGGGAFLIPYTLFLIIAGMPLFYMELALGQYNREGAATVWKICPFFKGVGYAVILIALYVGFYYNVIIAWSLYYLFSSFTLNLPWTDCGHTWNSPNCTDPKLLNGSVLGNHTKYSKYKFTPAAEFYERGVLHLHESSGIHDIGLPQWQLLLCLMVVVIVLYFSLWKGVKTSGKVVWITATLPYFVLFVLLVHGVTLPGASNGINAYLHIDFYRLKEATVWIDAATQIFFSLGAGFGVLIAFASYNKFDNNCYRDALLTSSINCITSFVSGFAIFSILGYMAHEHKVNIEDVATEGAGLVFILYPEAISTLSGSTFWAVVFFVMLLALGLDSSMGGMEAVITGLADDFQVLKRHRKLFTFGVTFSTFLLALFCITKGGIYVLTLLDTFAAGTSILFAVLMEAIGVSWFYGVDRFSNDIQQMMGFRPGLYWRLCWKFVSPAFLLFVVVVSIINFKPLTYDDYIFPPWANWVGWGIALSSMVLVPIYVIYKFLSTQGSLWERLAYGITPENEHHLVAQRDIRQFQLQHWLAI
Chain of Prostaglandin F2-alpha receptor (P43088 whole entry): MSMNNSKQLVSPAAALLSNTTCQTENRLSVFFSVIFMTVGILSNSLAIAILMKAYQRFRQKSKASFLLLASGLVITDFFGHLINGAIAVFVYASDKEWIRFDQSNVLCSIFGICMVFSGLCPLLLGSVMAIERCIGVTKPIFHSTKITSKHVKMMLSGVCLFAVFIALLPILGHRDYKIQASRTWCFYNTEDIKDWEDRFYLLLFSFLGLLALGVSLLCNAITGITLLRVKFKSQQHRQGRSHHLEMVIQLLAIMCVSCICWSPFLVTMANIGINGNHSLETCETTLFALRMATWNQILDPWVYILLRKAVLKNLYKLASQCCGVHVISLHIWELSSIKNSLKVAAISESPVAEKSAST

In the case of `Cc1c(N2CCNCC2)nc2ccc(Br)cc2c1C(=O)NC[C@H](CCC(=O)O)c1ccccc1Cl` [BAY-403], the inhibition in test [1] is 14.1%. For the same compound, the Ki in [2] was found to be 8.47 µM. Besides, the concentration for half-maximal inhibition (IC50) in test [3] is reported as > 10 µM (not active).
As to `Cc1c(N2CCCC2)nc2ccc(Br)cc2c1C(=O)NC[C@H](CCC(=O)O)c1ccccc1Cl` [BAY-6672], the inhibition in test [4] was 8%; in test [5] it was 11%; in [6], 32%; in [7], 7%; in [8], 13%; in [9], 13%. The inhibition in test [10] was 3%; in test [11], 11%; in test [12], 3%; in [13] it was 5%; in test [14], 15%; in test [15] it was 10%. The inhibition in test [16] is -3%; in test [17], 10%; in test [18], 18%; in [19] (Compound concentration 0.001 uM) it was 3%; in test [19] (Compound concentration 0.01 uM), -2%; in [19] (Compound concentration 0.1 uM), -3%. Also, the inhibition in test [19] (Compound concentration 1.0 uM) was -0%; in test [19] (Compound concentration 10.0 uM), 20%; in test [20], 6%; in test [21], -0%; in [22], 16%; in test [23] it was 2%.

By inhibition is commonly meant the drop in the measured response relative to a control, in per cent. In general, Ki refers to a measure of affinity in units of concentration, obtained from inhibition or displacement. The term IC50 denotes the point on the concentration scale where inhibition reaches its midpoint. The low end stands for greater potency, the high end for weaker potency.
